Measurements published in ChEMBL document CHEMBL1201862, “PubChem BioAssay data set” (2004).
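Five compound concentrations were applied to cells in 96-well plates for 48 hours; endpoints were derived by simple linear interpolation of the resulting dose-response curve. The concentration for 50% growth inhibition is given as GI50.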 The source made the active and inactive calls. No stated cut-off is given here; in the data, active = GI50 up to about 1.1 µM and inactive = higher.

Experiments:
Assay in all cases: NCI anticancer screen, dose series, 48 h
SK-OV-3 = tested on: SK-OV-3
A549 = tested on: A549
UACC-257 = tested on: UACC-257
NCI-H23 = tested on: NCI-H23
SF-539 = tested on: SF-539
COLO 205 = tested on: COLO 205
786-0 = tested on: 786-0
OVCAR-3 = tested on: OVCAR-3
HOP-62 = tested on: HOP-62
SNB-75 = tested on: SNB-75
K562 = tested on: K562
OVCAR-8 = tested on: OVCAR-8
NCI-H460 = tested on: NCI-H460
EKVX = tested on: EKVX
SK-MEL-2 = tested on: SK-MEL-2
SK-MEL-28 = tested on: SK-MEL-28

Measured: GI50

Cc1cc(C)nc(NS(=O)(=O)c2ccc(Nc3c4ccccc4nc4c(C(=O)Nc5ccc(S(N)(=O)=O)cc5)cccc34)cc2)n1
inactive: SK-OV-3 11.8 µM | A549 > 100 µM | UACC-257 > 100 µM | NCI-H23 68.5 µM | SF-539 > 100 µM | COLO 205 > 100 µM | 786-0 > 100 µM | OVCAR-3 66.5 µM | HOP-62 > 100 µM | SNB-75 25.8 µM | K562 72.4 µM | OVCAR-8 > 100 µM | NCI-H460 88.1 µM | EKVX 35.1 µM | SK-MEL-2 > 100 µM | SK-MEL-28 83.9 µM

CC(Oc1ccc(OCC2CCCCC2)cc1)C(=O)O (configuration not stated)
inactive: SK-OV-3 > 100 µM | A549 > 100 µM | UACC-257 > 100 µM | NCI-H23 > 100 µM | SF-539 > 100 µM | 786-0 > 100 µM | OVCAR-3 > 100 µM | SNB-75 > 100 µM | K562 > 100 µM | OVCAR-8 > 100 µM | NCI-H460 > 100 µM | SK-MEL-2 > 100 µM | SK-MEL-28 > 100 µM

Cc1cc2occ(-c3ccc(Cl)cc3)c2c(=O)o1
inactive: SK-OV-3 > 100 µM | A549 > 100 µM | UACC-257 > 100 µM | NCI-H23 > 100 µM | SF-539 > 100 µM | COLO 205 > 100 µM | 786-0 > 100 µM | OVCAR-3 > 100 µM | HOP-62 > 100 µM | SNB-75 55.7 µM | K562 > 100 µM | OVCAR-8 > 100 µM | NCI-H460 > 100 µM | EKVX > 100 µM | SK-MEL-2 > 100 µM | SK-MEL-28 > 100 µM

O=C(Nc1nc2ncn(CCI)c2c(=O)[nH]1)c1ccccc1
inactive: SK-OV-3 33.7 µM | A549 76 µM | UACC-257 > 100 µM | NCI-H23 > 100 µM | SF-539 26.1 µM | COLO 205 > 100 µM | 786-0 46.1 µM | OVCAR-3 52.8 µM | HOP-62 30.1 µM | SNB-75 20.5 µM | K562 > 100 µM | OVCAR-8 31.2 µM | NCI-H460 > 100 µM | EKVX > 80.4 µM | SK-MEL-2 > 53.5 µM | SK-MEL-28 > 100 µM

Cc1c(-c2coc(-c3ccc(Cl)cc3)n2)c(=O)n(-c2ccccc2)n1C
inactive: SK-OV-3 > 100 µM | A549 > 100 µM | UACC-257 > 100 µM | NCI-H23 > 100 µM | SF-539 > 100 µM | COLO 205 > 100 µM | 786-0 > 100 µM | OVCAR-3 93.3 µM | HOP-62 > 100 µM | SNB-75 > 100 µM | OVCAR-8 > 100 µM | NCI-H460 > 100 µM | EKVX > 100 µM | SK-MEL-2 > 100 µM | SK-MEL-28 > 100 µM

CCCCc1c2c(nc3c1CCc1cc(C=O)c(N)nc1-3)/C(=C/c1ccccc1)CCC2
inactive: SK-OV-3 > 100 µM | A549 19.6 µM | UACC-257 > 100 µM | NCI-H23 > 100 µM | SF-539 > 100 µM | COLO 205 17 µM | 786-0 > 100 µM | OVCAR-3 > 100 µM | HOP-62 > 100 µM | SNB-75 > 100 µM | K562 > 100 µM | OVCAR-8 46.2 µM | NCI-H460 40.8 µM | EKVX 48.4 µM | SK-MEL-2 > 100 µM | SK-MEL-28 > 100 µM

Cc1ccc(Sc2ccccc2N)cc1
inactive: SK-OV-3 > 100 µM | A549 39.3 µM | UACC-257 33.4 µM | NCI-H23 26.7 µM | SF-539 29.5 µM | COLO 205 40 µM | 786-0 29.2 µM | OVCAR-3 44.7 µM | HOP-62 6.53 µM | SNB-75 44.8 µM | K562 37.4 µM | OVCAR-8 52.2 µM | NCI-H460 30.4 µM | EKVX 54.6 µM | SK-MEL-2 35.7 µM | SK-MEL-28 67 µM

CC(=O)OC12C(C)=C(C)C(=O)N1c1ccccc1N2C(C)=O (configuration not stated)
inactive: SK-OV-3 > 100 µM | A549 > 100 µM | UACC-257 > 100 µM | NCI-H23 > 100 µM | COLO 205 > 100 µM | 786-0 > 100 µM | OVCAR-3 > 100 µM | HOP-62 > 100 µM | SNB-75 > 100 µM | K562 > 100 µM | OVCAR-8 > 100 µM | NCI-H460 > 100 µM | EKVX > 100 µM | SK-MEL-2 > 100 µM | SK-MEL-28 33.4 µM

CCc1cccc(C(C)C)c1NC(=O)CCl
inactive: SK-OV-3 > 100 µM | A549 > 100 µM | UACC-257 > 100 µM | NCI-H23 > 100 µM | SF-539 > 100 µM | 786-0 > 100 µM | OVCAR-3 > 100 µM | SNB-75 37.5 µM | K562 > 100 µM | EKVX > 100 µM | SK-MEL-2 > 100 µM | SK-MEL-28 > 100 µM

CC1OC(CC2C=CCc3c(O)c4c(c(O)c32)C(=O)c2ccccc2C4=O)CC(NC(=O)C(F)(F)F)C1O (configuration not stated)
inactive: SK-OV-3 10.2 µM | UACC-257 7.93 µM | NCI-H23 7.59 µM | SF-539 3.95 µM | COLO 205 13.8 µM | 786-0 11.1 µM | OVCAR-3 6.76 µM | HOP-62 6.49 µM | SNB-75 2.27 µM | K562 4.85 µM | OVCAR-8 4.22 µM | NCI-H460 5.25 µM | EKVX 12.6 µM | SK-MEL-2 6.87 µM | SK-MEL-28 4.55 µM

CCOC(=O)NC/C=C/CO
inactive: SK-OV-3 > 100 µM | A549 > 100 µM | UACC-257 > 100 µM | SF-539 > 100 µM | COLO 205 > 100 µM | 786-0 > 100 µM | HOP-62 > 100 µM | SNB-75 > 100 µM | K562 > 100 µM | OVCAR-8 > 100 µM | NCI-H460 > 100 µM | SK-MEL-2 > 100 µM | SK-MEL-28 > 100 µM

Oc1cc2c(cc1O)-c1[nH]ncc1CC2
inactive: SK-OV-3 22.5 µM | A549 42.4 µM | UACC-257 58.7 µM | NCI-H23 35.4 µM | SF-539 22.4 µM | COLO 205 26.1 µM | 786-0 39.6 µM | HOP-62 55.5 µM | SNB-75 16.6 µM | K562 32.7 µM | OVCAR-8 37.9 µM | NCI-H460 43.3 µM | EKVX 10.2 µM | SK-MEL-2 64.9 µM | SK-MEL-28 58.3 µM

CC(=O)OC1CCC2C(=CCC3C2(C)C(=O)CC2(C)C(C4(C)OC(C(C)C)=CC4=O)C(O)CC32C)C1(C)C (configuration not stated)
inactive: SK-OV-3 35.7 µM | A549 31.6 µM | NCI-H23 63.2 µM | SF-539 18.1 µM | COLO 205 56 µM | 786-0 > 100 µM | OVCAR-3 > 10 µM | HOP-62 > 100 µM | SNB-75 28.4 µM | K562 35.5 µM | OVCAR-8 43.7 µM | NCI-H460 27 µM | EKVX 57.3 µM | SK-MEL-2 27.1 µM
